# Laboratory results as given in patent publication US12014835B2, “Methods for evaluating therapeutic benefit of combination therapies” (Vanderbilt University, priority 2020, dated 2024).
# Columns and labels:
# Type in all cases: cell-based
# [1] = tested on: PC9 cells; test: MuSyC drug combination screen with osimertinib, DIP rate, high-throughput in vitro assay; settings: for synergistic efficacy (in words): drug-synergy diagram; for observed synergistic efficacy (βobs): at the maximum tested dose range
# Method: FIG. 2A illustrates a high-throughput pipeline for generating dose-response surfaces. Initial drug matrix is prepared on a 384-well plate and transferred to cells seeded at subconfluent densities. Cells are engineered to express a fluorescently tagged histone (H2B-RFP), allowing for cell counts using automated segmentation software. Each condition is imaged every 6-8 h, resulting in growth curves. The growth curves are fit to determine the drug-induced proliferation (DIP) rate (slope of dotted line, vide infra) to quantify drug effect. This matrix of DIP rates is fit to our equation to extract synergy parameters.
# MuSyC was applied to evaluate the synergistic potency and efficacy of a 64-drug panel (see Table 1 for drugs, drug classes, nominal targets, and tested concentration ranges) in combination with osimertinib, a mutant EGFR-tyrosine kinase inhibitor recently approved for first-line treatment of EGFR-mutant NSCLC. The selected drugs span a diverse array of cellular targets that can be broadly grouped into four categories: kinases, receptors and channels, epigenetic regulators, and mitotic checkpoints, each with several sub-categories. The combinations were tested in PC9 cells, a canonical model of EGFR-mutant NSCLC using a high-throughput, in vitro, drug-screening assay (FIG. 2A).
# Applying this algorithm, synergy parameters (α1, α2, and βobs) were extracted from fitted surfaces for all osimertinib combinations (βobs is the observed synergistic efficacy at the maximum tested dose range).
# [2] = tested on: WM2664_SKIN; test: BRAFi sensitivity, DIP rate
# Method: (§1) FIGS. 4A, 4B, and 4C depict data used to identify and characterize the top 200 differentially expressed genes (DEGs) between subclones of a BRAF-mutant melanoma cell line (SKMEL5) with differential sensitivity to BRAFi. FIG. 4A depicts growth curves of differentially sensitive, single-cell-derived subclones from SKMEL5 treated with 8 μM PLX4720. Gray curves represent colony growth according to the clonal fractional proliferation assay (Tyson, D. R. et al., Nature Methods (2012) Vol. 9, pp. 923-928). The average population response is indicated in the black curve. SC01, SC07, and SC10 were subsequently used to identify 200 DEGs. FIG. 4B depicts the top gene set enrichment terms for the identified 200 DEGs. FIG. 4C depicts a distribution of the correlation between the identified 200 DEGs' expression and BRAFi insensitivity. Drug sensitivity was quantified as DIP rate measured in 8 μM PLX4720. The threshold of p value <0.05 is annotated in pink.
# (§2) Specifically, gene expression was quantified using RNA sequencing (RNA-seq) and the top 200 differentially expressed genes (DEGs) (FDR<0.001) were identified. […] The correlation was computed of the 200 DEGs' expression to BRAFi sensitivity across a 10-cell-line panel using expression data from Subramanian, A. et al. (2017). in Cell vol. 171, 1437-1452.e17.
# [3] = tested on: SKMEL5_SKIN; test: BRAFi sensitivity, DIP rate
# Method: as §1, §2
# [4] = tested on: SKMEL28_SKIN; test: BRAFi sensitivity, DIP rate
# Method: as §1, §2
# [5] = tested on: WM1799_SKIN; test: BRAFi sensitivity, DIP rate
# Method: as §1, §2
# [6] = tested on: WM793_SKIN; test: BRAFi sensitivity, DIP rate
# Method: as §1, §2
# [7] = tested on: A375_SKIN; test: BRAFi sensitivity, DIP rate
# Method: as §1, §2
# [8] = tested on: WM88_SKIN; test: BRAFi sensitivity, DIP rate
# Method: as §1, §2
# [9] = tested on: WM115_SKIN; test: BRAFi sensitivity, DIP rate
# Method: as §1, §2
# [10] = tested on: A2058_SKIN; test: BRAFi sensitivity, DIP rate
# Method: as §1, §2
# [11] = tested on: WM983B_SKIN; test: BRAFi sensitivity, DIP rate
# Method: as §1, §2
# [12] = tested on: A2058; test: MuSyC analysis of PLX4720 in combination with NOX5 inhibitor DPI; settings: in combination with PLX4720, A2058 cell line
# Text: FIG. 4E depicts pairwise comparison between SC01 and SC10 of DEGs (FDR<0.001) identified using DESeq2 (Love, M. I. et al., Genome Biol. (2014) Vol. 15, p. 550). The 200 identified DEGs (ANOVA between three subclones) are in black. The dotted red lines denote ±4-fold change. FIG. 4F depicts the dose-response surface for PLX4270 plus DPI (a NOX5 inhibitor) in the A2058 cell line, using the same format as in FIGS. 2B and 2C.
# FIGS. 4G, 4H, and 4I depict additional MuSyC analysis of the effect of the combination therapy with PLX4270 and DPI. FIG. 4G depicts a DSD for NOX5i (DPI) plus BRAFi (PLX4720). FIG. 4H depicts the correlation (Pearson r) of NOX5 expression with observed synergistic efficacy (βobs). FIG. 4I depicts the correlation (Pearson r) of NOX5 expression with synergistic potency, where α2 is DPI's effect on PLX4720 potency. Error bars represent parameter uncertainty calculated in MCMC fitting.
# To study NOX5's contribution to the potency or efficacy of BRAFi, PLX4720 was tested in combination with a NOX5 inhibitor, DPI, in a panel of 7 melanoma cell lines selected based on differential NOX5 expression. […] See also, Meyer et al. in Cell Systems (2010) vol 8, pages 97-108, which is hereby incorporated by reference for all purposes.
# [13] = in combination with osimertinib, PC9 cells
compound,measurement,setting,value
CC[C@]1(O)C[C@@H]2CN(CCc3c([nH]c4ccccc34)[C@@](C(=O)OC)(c3cc4c(cc3OC)N(C)[C@H]3[C@@](O)(C(N)=O)[C@H](O)[C@]5(CC)C=CCN6CC[C@]43[C@@H]65)C2)C1 [vindesine],synergistic efficacy (in words),[1]; [13],upward shift along the axis of synergistic efficacy
CCCCc1oc2ccc(NS(C)(=O)=O)cc2c1C(=O)c1ccc(OCCCN(CCCC)CCCC)cc1 [dronedarone],synergistic efficacy (in words),[1]; [13],most antagonistic
COC(=O)Nc1nc2ccc(Oc3ccc(NC(=O)Nc4ccccc4)cc3)cc2[nH]1 [GW694590a],synergistic efficacy (in words),[1]; [13],synergistically efficacious
Nc1ccccc1NC(=O)c1ccc(CNC(=O)OCc2cccnc2)cc1 [entinostat],observed synergistic efficacy (βobs),[1]; [13],0.84±0.027
CCCS(=O)(=O)Nc1ccc(F)c(C(=O)c2c[nH]c3ncc(Cl)cc23)c1F [PLX4270],DIP Rate at [8 uM] PLX4270,[2],0.003 h⁻¹
same,DIP Rate at [8 uM] PLX4270,[3],0.014 h⁻¹
same,DIP Rate at [8 uM] PLX4270,[4],0.010 h⁻¹
same,DIP Rate at [8 uM] PLX4270,[5],-0.002 h⁻¹
same,DIP Rate at [8 uM] PLX4270,[6],0.015 h⁻¹
same,DIP Rate at [8 uM] PLX4270,[7],0.005 h⁻¹
same,DIP Rate at [8 uM] PLX4270,[8],-0.020 h⁻¹
same,DIP Rate at [8 uM] PLX4270,[9],0.013 h⁻¹
same,DIP Rate at [8 uM] PLX4270,[10],0.030 h⁻¹
same,DIP Rate at [8 uM] PLX4270,[11],0.021 h⁻¹
Cc1cc(Nc2ncc(Cl)c(Nc3ccccc3S(=O)(=O)C(C)C)n2)c(OC(C)C)cc1C1CCNCC1 [ceritinib],EC50,"[1]; Homo sapiens, PC-9, single agent, PC9 cells, DIP rate",2.02 µM
same,synergistic potency log(α2): how osimertinib's potency is modulated by the drug,[1]; [13],6.25±0.50
same,observed synergistic efficacy (βobs),[1]; [13],0.28 ±0.003
c1ccc2c(c1)[I+]c1ccccc1-2 [DPI],observed synergistic efficacy (βobs),[12],1.42 ±0.05
CN(C)c1ccc(C(=O)NCCCCCCC(=O)NO)cc1 [M344],increase in efficacy over osimertinib alone,[1]; [13],125%
same,synergistic potency log(α2): how osimertinib's potency is modulated by the drug,[1]; [13],−0.90±0.01
same,observed synergistic efficacy (βobs),[1]; [13],1.25±0.03
Cn1cc(CNCC2CCN(c3ncc(C(=O)NO)cn3)CC2)c2ccccc21 [quisinostat],total efficacy of the combination (in words),"[1]; in combination with osimertinib, NSCLC screen",greatest total efficacy
